Test results from patent US8709740B2, “Control of protein activity using a conducting polymer” (The United States of America, as represented by the …, priority 2005, dated 2014).

How the values were obtained:
[1] = target: kinesin; details: comparison value, source not given; read-out: inhibition constant Ki (other inhibitors); cited from earlier work
[2] = target: T1, Drosophila sp. kinesin K401-BCCP-His6 (K401-biotin carboxyl carrier protein-His6) (Drosophila melanogaster, UniProt P17210); assay: Michaelis-Menten kinetics of kinesin on poly(OH-EDOT) surface from microtubule gliding speeds at varied ATP concentration; assay type: biochemical
T1 construct: motor domain, neck linker and part of the coiled coil) of kinesin-1 heavy chain fused to biotin carboxyl carrier protein (BCCP, from E. coli in the known construct) and a His6 tag; microtubules and ATP present
T1 sequence (P17210 1-401): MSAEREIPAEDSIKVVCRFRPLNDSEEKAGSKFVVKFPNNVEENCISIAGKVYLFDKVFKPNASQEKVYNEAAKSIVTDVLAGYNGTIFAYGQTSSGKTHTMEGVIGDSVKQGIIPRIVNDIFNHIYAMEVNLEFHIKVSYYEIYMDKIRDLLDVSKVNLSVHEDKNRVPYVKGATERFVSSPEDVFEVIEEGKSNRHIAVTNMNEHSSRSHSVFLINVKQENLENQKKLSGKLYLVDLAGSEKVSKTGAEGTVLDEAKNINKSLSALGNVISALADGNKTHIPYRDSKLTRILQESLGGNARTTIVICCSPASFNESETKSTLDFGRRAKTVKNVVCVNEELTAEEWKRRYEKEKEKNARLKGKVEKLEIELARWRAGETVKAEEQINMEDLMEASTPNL
Text: The protein ensemble (streptavidin, BSA, Drosophila kinesin K401-biotin carboxyl carrier protein (BCCP)-His6 and MTs) was deposited onto the conducting polymer surface (initially doped) using standard flow or droplet deposition methods. Flow cells were assembled using double-sided tape as a spacer creating a channel of approximate dimensions 5 mm×10 mm×0.04 mm. For the non-electrochemical assays, the poly(OH-EDOT)/PET substrate was placed on a glass slide with the conducting polymer layer down. The proteins were introduced using the standard capillary-flow technique. The buffer for all experiments was BRB80 (80 mM Pipes, 2 mM MgCl2, 1 mM EGTA, pH 6.95 with KOH). The flow cells were sequentially filled with a streptavidin solution (Streptomyces avidinii, Sigma-Aldrich, 1.0 mg/mL in BRB80, 10 min deposition time), BSA solution (Sigma-Aldrich, 1.0 mg/mL in BRB80, 10 min deposition time), standard kinesin solution (40 μg/mL kinesin K401-BCCP-His6 with 1 mM ATP in BRB80, 10 min deposition time), and finally a motility buffer with rhodamine-labeled microtubules (1-10 μm in length), containing 1 mM ATP and stabilized with 10 μM Taxol with oxygen scavenging additives (20 mM D-glucose, 20 μg/mL glucose oxidase, 8 μg/mL catalase, 0.2% 2-mercaptoethanol). Flow cells were sealed with immersion oil to prevent evaporation. The assays were performed at room temperature (21° C.).
It has recently been well established that as kinesin hydrolyzes a single ATP molecule, it induces an eight-nanometer movement of a microtubule. Therefore enzyme activity can be indirectly assayed by simply determining the average speed of a large population of microtubules. This was done using fluorescently-labeled microtubules, and their gliding speeds were then carefully measured using confocal microscopy. Microtubules were visualized on the conducting polymer using an Olympus Opelco BX51 fluorescence microscope and their speeds quantified using Metamorph image analysis software (Universal Imaging, Downingtown, Pa.). This assay method was then combined with a transparent electrochemical cell containing a poly(OH-EDOT) support. The poly(OH-EDOT) was ˜80% transparent in the visible range, allowing the microtubules to be easily seen and their speeds measured. […] The surface was then electrochemically doped by applying a bias of […] for 1 minute. The average microtubule speed was measured and found to be 0.40 μm/sec. The resulting ratio in speed differences (dedoped vs. doped surfaces) is 1.55, a striking exact correlation with the ATP hydrolysis ratios on the two surfaces. The surface was then cycled between the two states once more to give an overall cycling history of −1.0 V, +1.0 V, −1.0 V, +1.0 V with corresponding polymer states dedoped, doped, dedoped, doped (FIG. 3). For the second doping cycle the microtubule speeds were 0.63 (dedoped) and 0.40 (doped), giving a speed difference ratio of […].
At this point it was clear that the polymer surface was exerting a direct, reversible effect on the kinesin protein itself. The nature of this influence was examined by treating the charged species in the doped polymer form (the radical cation, or polaron) as an inhibitor, and quantified the enzyme kinetics in terms of Michaelis-Menten parameters. First, the surface concentration of the polarons was calculated using the established value of one polaron per four polymer repeat units for fully doped thiophene-type polymers. […] If one then encloses a kinesin molecule in a cube 30 nm per side and considers the polarons on the 30 nm×30 nm surface region to be distributed in the cube volume, an apparent local polaron concentration ([Iapp]) of 3.89 mM is obtained.
The Michaelis-Menten analysis assumes a kinetic model of the type shown in FIG. 5 (E=enzyme, ES=enzyme-substrate complex, P=product, kcat=catalytic turnover rate constant, Dstep=8 nm, Km=Michaelis constant). The kinetics of most enzymes, including kinesin, is accurately described with this model. […]

[3] = substrate ATP, doped vs dedoped surface

Row | SMILES | Ki [1] [mM] | Speedmax dedoped ([2]; dedoped poly(OH-EDOT) surface, microtubule speed at infinite ATP concentration, 21° C., BRB80 pH 6.95) | Speedmax doped ([2]; doped poly(OH-EDOT) surface, microtubule speed at infinite ATP concentration, 21° C., BRB80 pH 6.95) | kcat dedoped ([2]; substrate ATP, dedoped poly(OH-EDOT) surface, 8 nm step per ATP hydrolyzed) | kcat doped ([2]; substrate ATP, doped poly(OH-EDOT) surface, 8 nm step per ATP hydrolyzed) | Km app doped lower than Km dedoped [2, 3] | kcat doped lower than kcat dedoped [2, 3]
1 | Nc1ncnc2c1ncn2[C@@H]1O[C@H](COP(=O)(O)OP(=O)(O)O)[C@@H](O)[C@H]1O [ADP, adenosine diphosphate] | 0.048 |  |  |  |  |  | 
2 | O=P(O)(O)O [PO4^2−] | 9.3 |  |  |  |  |  | 
3 | Nc1ncnc2c1ncn2[C@@H]1O[C@H](COP(=O)(O)OP(=O)(O)OP(=O)(O)O)[C@@H](O)[C@H]1O [ATP, adenosine triphosphate] |  | 0.943 μm/s ± 0.05 | 0.600 μm/s ± 0.03 | 118 sec^−1 ± 6 | 75.0 sec^−1 ± 3 | ca. 35% | ca. 36%
